Values quoted from earlier work, collected in patent publication US11191734B2, “Ketamine transdermal delivery system” (SHENOX PHARMACEUTICALS, LLC, priority 2015, dated 2021).

Tests used:
NMDA receptor = conditions: in vitro
[1] = in vivo
[2] = not given; remark: listed apart in the source
[3] = three-compartment model, 70-kg human

## CN[C@]1(c2ccccc2Cl)CCCCC1=O [S-ketamine]
NMDA receptor
  affinity on NMDA receptor binding relative to R-ketamine: ~4 fold

## CN[C@@]1(c2ccccc2Cl)CCCCC1=O [R-ketamine]
Animal model studies
  antidepressant effectiveness: more effective as an antidepressant than S-ketamine
In vivo
  psychotomimetic side effects and abuse liability: free of psychotomimetic side effects and abuse liability

## CNC1(c2ccccc2Cl)CCCCC1=O (racemic) [ketamine]
[1]
  onset of antidepressant effect after administration: ≤ 2 h
[2]; in humans
  absolute oral bioavailability: 10-20%
[2]; in vivo
  half-life: about 2 hours
  systemic (primarily hepatic) clearance: about 19 ml/min·kg
[2]; [3]
  V1: 133 L
  clearance: 79.8 L/h
  micro constant k12: 0.174 h⁻¹
  micro constant k13: 1.18 h⁻¹
  micro constant k21: 0.124 h⁻¹
  micro constant k31: 1.59 h⁻¹
